# Measured values as given in patent US20160251332A1, “Herbicidal Compounds” (SYNGENTA PARTICIPATIONS AG, priority 2013, published 2016).
# Test system: Amaranthus retroflexus
# Test: Pre-emergence herbicidal activity, AMARE
# Assay type: in vivo
# Conditions: Application pre-emergence, 1000 g/Ha, evaluated after 13 days, scale 0-5
# Protocol: (§1) Seeds of a variety of test species were sown in standard soil in pots. After cultivation for one day (pre-emergence) under controlled conditions in a glasshouse (at 24/16° C., day/night; 14 hours light; 65% humidity), the plants were sprayed with an aqueous spray solution derived from the formulation of the technical active ingredient in acetone/water (50:50) solution containing 0.5% Tween 20 (polyoxyethelyene sorbitan monolaurate, CAS RN 9005-64-5). The test plants were then grown in a glasshouse under controlled conditions (at 24/16° C., day/night; 14 hours light; 65% humidity) and watered twice daily. After 13 days, the test was evaluated (5=total damage to plant; 0=no damage to plant).
row,SMILES,AMARE damage score
1,Cc1ccc(-c2cnc(N3C(=O)N(C)CC3O)cc2C(F)(F)F)cn1 (centres unmarked) [Compound A20],5
2,CN1CC(O)N(c2cc(C(F)(F)F)c(C(=O)NC(C)(C)C)cn2)C1=O (centres unmarked) [Compound A43],5
3,CN1CC(O)N(c2cc(C(F)(F)F)c(NC(=O)C(C)(C)C)cn2)C1=O (centres unmarked) [Compound A42],5
4,C=Cc1cnc(N2C(=O)N(C)CC2O)cc1C(F)(F)F (centres unmarked) [Compound A41],5
5,CN1CC(O)N(c2cc(C(F)(F)C(F)(F)F)ccn2)C1=O (centres unmarked) [Compound A48],5

# Test system: Echinochloa crus-galli
# Test: Pre-emergence herbicidal activity, ECHCG
# Assay type: in vivo
# Conditions: Application pre-emergence, 1000 g/Ha, evaluated after 13 days, scale 0-5
# Protocol: as §1
row,SMILES,ECHCG damage score
1,Cc1ccc(-c2cnc(N3C(=O)N(C)CC3O)cc2C(F)(F)F)cn1 (centres unmarked) [Compound A20],5
2,CN1CC(O)N(c2cc(C(F)(F)F)c(C(=O)NC(C)(C)C)cn2)C1=O (centres unmarked) [Compound A43],5
3,CN1CC(O)N(c2cc(C(F)(F)F)c(NC(=O)C(C)(C)C)cn2)C1=O (centres unmarked) [Compound A42],5
4,C=Cc1cnc(N2C(=O)N(C)CC2O)cc1C(F)(F)F (centres unmarked) [Compound A41],4
5,CN1CC(O)N(c2cc(C(F)(F)C(F)(F)F)ccn2)C1=O (centres unmarked) [Compound A48],4

# Test system: Abutilon theophrasti
# Test: Pre-emergence herbicidal activity, ABUTH
# Assay type: in vivo
# Conditions: Application pre-emergence, 1000 g/Ha, evaluated after 13 days, scale 0-5
# Protocol: as §1
row,SMILES,ABUTH damage score
1,Cc1ccc(-c2cnc(N3C(=O)N(C)CC3O)cc2C(F)(F)F)cn1 (centres unmarked) [Compound A20],5
2,CN1CC(O)N(c2cc(C(F)(F)F)c(C(=O)NC(C)(C)C)cn2)C1=O (centres unmarked) [Compound A43],5
3,CN1CC(O)N(c2cc(C(F)(F)F)c(NC(=O)C(C)(C)C)cn2)C1=O (centres unmarked) [Compound A42],5
4,C=Cc1cnc(N2C(=O)N(C)CC2O)cc1C(F)(F)F (centres unmarked) [Compound A41],4
5,CN1CC(O)N(c2cc(C(F)(F)C(F)(F)F)ccn2)C1=O (centres unmarked) [Compound A48],5

# Test system: Setaria faberi
# Test: Pre-emergence herbicidal activity, SETFA
# Assay type: in vivo
# Conditions: Application pre-emergence, 1000 g/Ha, evaluated after 13 days, scale 0-5
# Protocol: as §1
row,SMILES,SETFA damage score
1,Cc1ccc(-c2cnc(N3C(=O)N(C)CC3O)cc2C(F)(F)F)cn1 (centres unmarked) [Compound A20],5
2,CN1CC(O)N(c2cc(C(F)(F)F)c(C(=O)NC(C)(C)C)cn2)C1=O (centres unmarked) [Compound A43],5
3,CN1CC(O)N(c2cc(C(F)(F)F)c(NC(=O)C(C)(C)C)cn2)C1=O (centres unmarked) [Compound A42],5
4,C=Cc1cnc(N2C(=O)N(C)CC2O)cc1C(F)(F)F (centres unmarked) [Compound A41],4
5,CN1CC(O)N(c2cc(C(F)(F)C(F)(F)F)ccn2)C1=O (centres unmarked) [Compound A48],5

# Test system: Zea mays
# Test: Pre-emergence herbicidal activity, ZEAMX
# Assay type: in vivo
# Conditions: Application pre-emergence, 1000 g/Ha, evaluated after 13 days, scale 0-5
# Protocol: as §1
row,SMILES,ZEAMX damage score
1,Cc1ccc(-c2cnc(N3C(=O)N(C)CC3O)cc2C(F)(F)F)cn1 (centres unmarked) [Compound A20],3
2,CN1CC(O)N(c2cc(C(F)(F)F)c(C(=O)NC(C)(C)C)cn2)C1=O (centres unmarked) [Compound A43],2
3,CN1CC(O)N(c2cc(C(F)(F)F)c(NC(=O)C(C)(C)C)cn2)C1=O (centres unmarked) [Compound A42],3
4,C=Cc1cnc(N2C(=O)N(C)CC2O)cc1C(F)(F)F (centres unmarked) [Compound A41],2
5,CN1CC(O)N(c2cc(C(F)(F)C(F)(F)F)ccn2)C1=O (centres unmarked) [Compound A48],2

# Test system: Amaranthus retroflexus
# Test: Post-emergence herbicidal activity, AMARE
# Assay type: in vivo
# Conditions: Application post-emergence, 1000 g/Ha, evaluated after 13 days, scale 0-5
# Protocol: (§2) Seeds of a variety of test species were sown in standard soil in pots. After 8 days cultivation (post-emergence) under controlled conditions in a glasshouse (at 24/16° C., day/night; 14 hours light; 65% humidity), the plants were sprayed with an aqueous spray solution derived from the formulation of the technical active ingredient in acetone/water (50:50) solution containing 0.5% Tween 20 (polyoxyethelyene sorbitan monolaurate, CAS RN 9005-64-5). The test plants were then grown in a glasshouse under controlled conditions (at 24/16° C., day/night; 14 hours light; 65% humidity) and watered twice daily. After 13 days, the test was evaluated (5=total damage to plant; 0=no damage to plant).
row,SMILES,AMARE damage score
1,Cc1ccc(-c2cnc(N3C(=O)N(C)CC3O)cc2C(F)(F)F)cn1 (centres unmarked) [Compound A20],5
2,CN1CC(O)N(c2cc(C(F)(F)F)c(C(=O)NC(C)(C)C)cn2)C1=O (centres unmarked) [Compound A43],5
3,CN1CC(O)N(c2cc(C(F)(F)F)c(NC(=O)C(C)(C)C)cn2)C1=O (centres unmarked) [Compound A42],5
4,C=Cc1cnc(N2C(=O)N(C)CC2O)cc1C(F)(F)F (centres unmarked) [Compound A41],5
5,CN1CC(O)N(c2cc(C(F)(F)C(F)(F)F)ccn2)C1=O (centres unmarked) [Compound A48],5

# Test system: Abutilon theophrasti
# Test: Post-emergence herbicidal activity, ABUTH
# Assay type: in vivo
# Conditions: Application post-emergence, 1000 g/Ha, evaluated after 13 days, scale 0-5
# Protocol: as §2
row,SMILES,ABUTH damage score
1,Cc1ccc(-c2cnc(N3C(=O)N(C)CC3O)cc2C(F)(F)F)cn1 (centres unmarked) [Compound A20],5
2,CN1CC(O)N(c2cc(C(F)(F)F)c(C(=O)NC(C)(C)C)cn2)C1=O (centres unmarked) [Compound A43],5
3,CN1CC(O)N(c2cc(C(F)(F)F)c(NC(=O)C(C)(C)C)cn2)C1=O (centres unmarked) [Compound A42],5
4,C=Cc1cnc(N2C(=O)N(C)CC2O)cc1C(F)(F)F (centres unmarked) [Compound A41],5
5,CN1CC(O)N(c2cc(C(F)(F)C(F)(F)F)ccn2)C1=O (centres unmarked) [Compound A48],5

# Test system: Setaria faberi
# Test: Post-emergence herbicidal activity, SETFA
# Assay type: in vivo
# Conditions: Application post-emergence, 1000 g/Ha, evaluated after 13 days, scale 0-5
# Protocol: as §2
row,SMILES,SETFA damage score
1,Cc1ccc(-c2cnc(N3C(=O)N(C)CC3O)cc2C(F)(F)F)cn1 (centres unmarked) [Compound A20],5
2,CN1CC(O)N(c2cc(C(F)(F)F)c(C(=O)NC(C)(C)C)cn2)C1=O (centres unmarked) [Compound A43],5
3,CN1CC(O)N(c2cc(C(F)(F)F)c(NC(=O)C(C)(C)C)cn2)C1=O (centres unmarked) [Compound A42],5
4,C=Cc1cnc(N2C(=O)N(C)CC2O)cc1C(F)(F)F (centres unmarked) [Compound A41],5
5,CN1CC(O)N(c2cc(C(F)(F)C(F)(F)F)ccn2)C1=O (centres unmarked) [Compound A48],5

# Test system: Echinochloa crus-galli
# Test: Post-emergence herbicidal activity, ECHCG
# Assay type: in vivo
# Conditions: Application post-emergence, 1000 g/Ha, evaluated after 13 days, scale 0-5
# Protocol: as §2
row,SMILES,ECHCG damage score
1,Cc1ccc(-c2cnc(N3C(=O)N(C)CC3O)cc2C(F)(F)F)cn1 (centres unmarked) [Compound A20],5
2,CN1CC(O)N(c2cc(C(F)(F)F)c(C(=O)NC(C)(C)C)cn2)C1=O (centres unmarked) [Compound A43],5
3,CN1CC(O)N(c2cc(C(F)(F)F)c(NC(=O)C(C)(C)C)cn2)C1=O (centres unmarked) [Compound A42],5
4,C=Cc1cnc(N2C(=O)N(C)CC2O)cc1C(F)(F)F (centres unmarked) [Compound A41],5
5,CN1CC(O)N(c2cc(C(F)(F)C(F)(F)F)ccn2)C1=O (centres unmarked) [Compound A48],5

# Test system: Zea mays
# Test: Post-emergence herbicidal activity, ZEAMX
# Assay type: in vivo
# Conditions: Application post-emergence, 1000 g/Ha, evaluated after 13 days, scale 0-5
# Protocol: as §2
row,SMILES,ZEAMX damage score
1,Cc1ccc(-c2cnc(N3C(=O)N(C)CC3O)cc2C(F)(F)F)cn1 (centres unmarked) [Compound A20],4
2,CN1CC(O)N(c2cc(C(F)(F)F)c(C(=O)NC(C)(C)C)cn2)C1=O (centres unmarked) [Compound A43],5
3,CN1CC(O)N(c2cc(C(F)(F)F)c(NC(=O)C(C)(C)C)cn2)C1=O (centres unmarked) [Compound A42],5
4,C=Cc1cnc(N2C(=O)N(C)CC2O)cc1C(F)(F)F (centres unmarked) [Compound A41],2
5,CN1CC(O)N(c2cc(C(F)(F)C(F)(F)F)ccn2)C1=O (centres unmarked) [Compound A48],3
